Values of other authors, collected in patent publication US20070237796A1, “Stable High Pl Hydrogel Compositions” (priority 2003, published 2007).

settings: not given

| SMILES | pKa |
| --- | --- |
| OC[C@H]1O[C@@H](O[C@H]2[C@H](O)[C@@H](O)C(O)O[C@@H]2CO)[C@H](O)[C@@H](O)[C@H]1O (stereo partly drawn) [Lactose] | 11.98 |
| O=C[C@H](O)[C@@H](O)[C@@H](O)[C@H](O)CO [Galactose] | 12.39 |
| O=C[C@H](O)[C@@H](O)[C@H](O)CO [Xylose] | 12.15 |
| CO[C@H]1O[C@H](CO)[C@@H](O)[C@H](O)[C@H]1O [α-Methyl glucoside] | 13.71 |

same assay, conditions: secondary OH

| SMILES | pKa |
| --- | --- |
| OC[C@H]1O[C@@H]2O[C@H]3[C@H](O)[C@@H](O)[C@@H](O[C@H]4[C@H](O)[C@@H](O)[C@@H](O[C@H]5[C@H](O)[C@@H](O)[C@@H](O[C@H]6[C@H](O)[C@@H](O)[C@@H](O[C@H]7[C@H](O)[C@@H](O)[C@@H](O[C@H]8[C@H](O)[C@@H](O)[C@@H](O[C@H]9[C@H](O)[C@@H](O)[C@@H](O[C@H]1[C@H](O)[C@H]2O)O[C@@H]9CO)O[C@@H]8CO)O[C@@H]7CO)O[C@@H]6CO)O[C@@H]5CO)O[C@@H]4CO)O[C@@H]3CO [γ-cyclodextrin] | 12.05 (secondary OH) |
| OC[C@H]1O[C@@H]2O[C@H]3[C@H](O)[C@@H](O)[C@@H](O[C@H]4[C@H](O)[C@@H](O)[C@@H](O[C@H]5[C@H](O)[C@@H](O)[C@@H](O[C@H]6[C@H](O)[C@@H](O)[C@@H](O[C@H]7[C@H](O)[C@@H](O)[C@@H](O[C@H]8[C@H](O)[C@@H](O)[C@@H](O[C@H]1[C@H](O)[C@H]2O)O[C@@H]8CO)O[C@@H]7CO)O[C@@H]6CO)O[C@@H]5CO)O[C@@H]4CO)O[C@@H]3CO [β-cyclodextrin] | 12.20 (secondary OH) |
